Results as given in ChEMBL document CHEMBL4219064, “Identification of novel quinazolinedione derivatives as RORγt inverse agonist” (Bioorg Med Chem, 2018).
Converted amounts (≈) assume the structure as drawn.

How the values were obtained:
[1] = Kinetic solubility of the compound in second fluid of disintegration test of the Japanese Pharmacopoeia at pH 6.8 by HPLC analysis
[2] = molecular target: T1, Nuclear receptor ROR-gamma (Homo sapiens, UniProt P51449); assay: Inverse agonist activity at RORgammat (unknown origin) expressed in human Jurkat cells assessed as inhibition of transcriptional activity after overnight incubation by human IL-17 ROR response element driven-bright-glo luciferase reporter gene assay; assay type: cell-based
T1 sequence (P51449 whole entry): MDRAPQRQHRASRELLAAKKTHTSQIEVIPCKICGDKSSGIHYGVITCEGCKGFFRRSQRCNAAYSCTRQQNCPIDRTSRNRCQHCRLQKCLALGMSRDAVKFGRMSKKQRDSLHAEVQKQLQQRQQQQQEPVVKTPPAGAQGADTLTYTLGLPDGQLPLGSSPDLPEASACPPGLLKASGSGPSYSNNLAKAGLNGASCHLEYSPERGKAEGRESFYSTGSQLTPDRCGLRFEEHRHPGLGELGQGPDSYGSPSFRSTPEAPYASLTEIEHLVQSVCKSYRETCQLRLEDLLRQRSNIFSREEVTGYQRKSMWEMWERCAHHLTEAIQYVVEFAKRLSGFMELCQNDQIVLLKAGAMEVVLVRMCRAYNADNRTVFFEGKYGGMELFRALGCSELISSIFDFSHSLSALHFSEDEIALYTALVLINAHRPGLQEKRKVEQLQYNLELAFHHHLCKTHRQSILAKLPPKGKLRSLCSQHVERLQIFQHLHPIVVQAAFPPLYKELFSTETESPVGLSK

[3] = molecular target: T1, Nuclear receptor ROR-gamma; assay: Displacement of BODIPY-labeled-(R)-N-(2-(3,5-difluoro-4-(trimethylsilyl)phenylamino)-1-(4-(methoxymethyl)phenyl)-2-oxoethyl)-5-(2-((1-(difluoroboryl)-3,5-dimethyl-1H-pyrrol-2-yl)methylene)-2H-pyrrol-5-yl)pentanamide from human His-tagged RORgammat after 20 mins by TR-FRET assay
[4] = Oral bioavailability in rat at 1 mg/kg; assay type: ADME, organism-based; conditions: in vivo
[5] = Clearance in rat at 1 mg/kg, po or 0.1 mg/kg, iv; assay type: ADME, organism-based; conditions: in vivo
[6] = AUC in rat at 1 mg/kg, po; assay type: ADME, organism-based; conditions: in vivo
[7] = Lipophilicity, log D of the compound at pH 7.4; assay type: physicochemical; conditions: buffer
Rattus norvegicus = assay: In vivo inverse agonist activity at RORgammat in po dosed Lewis rat experimental autoimmune encephalomyelitis model assessed as inhibition of IL-17A mRNA levels in popliteal lymph nodes administered twice daily for 5 days by qRT-PCR analysis; assay type: functional; conditions: 120 h, read-out: MED
tissue or blood = conditions: Rattus norvegicus, Lewis
Description: Inverse agonist activity at RORgammat in Lewis rat whole blood assessed as inhibition of IL-17A production incubated for 1 hr followed by PMA/ionomycin stimulation measured after 24 hrs by ELISA

Structure (SMILES)	solubility kinetic [1] [µg/mL]	bioavailability [4] [%]	clearance [5] [mL/min/kg]	AUC [6] [ng·h/mL]	also measured
CCC1Oc2cc(NC(=O)CC(C)CC(=O)Nc3ccc(C#N)c(Cl)c3)ccc2N(CC)C1=O (racemic)	5.6 (≈ 11.6 µM)				
CC(CC(=O)Nc1ccc(C#N)cc1)CC(=O)Nc1ccc2[nH]c3c(c2c1)CCCC3 (racemic)	0.19 (≈ 0.458 µM)				
CCn1c(=O)oc2cc(NC(=O)CC(C)CC(=O)Nc3ccc(C#N)c(Cl)c3)ccc21 (racemic)	0.9 (≈ 2.04 µM)				
CCn1c2ccccc2c2cc(NC(=O)CC(C)CC(=O)Nc3ccccc3C#N)ccc21 (racemic)					IC50 [2]: > 30 µM; IC50 [3]: > 10 µM
CCN1C(=O)COc2cc(NC(=O)CC(C)CC(=O)Nc3ccc(C#N)c(Cl)c3)ccc21 (racemic)	12 (≈ 26.4 µM)				
CCn1c(=O)c2cc(NC(=O)CC(C)CC(=O)Nc3ccc(C#N)c(Cl)c3)ccc2n(CC2CC2)c1=O (racemic)		5.5	28.4	33	
CCn1c2ccccc2c2cc(NC(=O)CC(C)CC(=O)Nc3ccc(C#N)c(Cl)c3)ccc21 (racemic)	0.15 (≈ 0.317 µM)				logD [7]: 3.76
CCn1c2c(c3cc(NC(=O)CC(C)CC(=O)Nc4ccc(C#N)cc4)ccc31)CCCC2 (racemic)	0.06 (≈ 0.136 µM)				
CCN1C(=O)C(C)Oc2cc(NC(=O)CC(C)CC(=O)Nc3ccc(C#N)c(Cl)c3)ccc21 (racemic)	23 (≈ 49 µM)				logD [7]: 2.66
CCn1c(=O)n(CC2CC2)c(=O)c2cc(NC(=O)CC(C)CC(=O)Nc3ccc(C#N)c(Cl)c3)ccc21 (racemic)		2.7	44	10	
CCn1c(=O)c2cc(NC(=O)CC(C)CC(=O)Nc3ccc(C#N)c(Cl)c3)ccc2n(CC)c1=O (racemic)	42 (≈ 84.7 µM)	6.2	26.8	39	logD [7]: 2.99
CC(CC(=O)Nc1ccc(C#N)c(Cl)c1)CC(=O)Nc1ccc2c(c1)c(=O)n(CC1CC1)c(=O)n2CC1CC1 (racemic)		7.1	11.2	106	minimal effective dose (Rattus norvegicus): 100 mg/kg; IC50 (tissue or blood): 0.057 µM
CCn1ccc2cc(NC(=O)CC(C)CC(=O)Nc3ccc(C#N)c(Cl)c3)ccc21 (racemic)	0.1 (≈ 0.236 µM)				
